Measured values from patent publication US9169260B2 (MERCK SHARP & DOHME CORP., priority 2011, dated 2015).

Target: GST tagged IRAK-4 (Homo sapiens (Human), UniProt Q9NWZ3)
Experiment: IRAK-4 Kinase Assay (IMAP fluorescence polarization)
Format: biochemical
Conditions: 100 μM ATP, 30 minutes at 25° C.
Outline: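 Activity was read by IMAP fluorescence polarization, where phosphopeptide binding to M(III) nanoparticles raises FP. The 30-minute, 25° C reaction used 100 μM ATP, 100 nM RP7030 substrate and 0.5 nM GST-IRAK-4 in pH 7.2 Tris buffer with MgCl2, DTT and Tween 20.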

Sequence of GST tagged IRAK-4 (Q9NWZ3 whole entry): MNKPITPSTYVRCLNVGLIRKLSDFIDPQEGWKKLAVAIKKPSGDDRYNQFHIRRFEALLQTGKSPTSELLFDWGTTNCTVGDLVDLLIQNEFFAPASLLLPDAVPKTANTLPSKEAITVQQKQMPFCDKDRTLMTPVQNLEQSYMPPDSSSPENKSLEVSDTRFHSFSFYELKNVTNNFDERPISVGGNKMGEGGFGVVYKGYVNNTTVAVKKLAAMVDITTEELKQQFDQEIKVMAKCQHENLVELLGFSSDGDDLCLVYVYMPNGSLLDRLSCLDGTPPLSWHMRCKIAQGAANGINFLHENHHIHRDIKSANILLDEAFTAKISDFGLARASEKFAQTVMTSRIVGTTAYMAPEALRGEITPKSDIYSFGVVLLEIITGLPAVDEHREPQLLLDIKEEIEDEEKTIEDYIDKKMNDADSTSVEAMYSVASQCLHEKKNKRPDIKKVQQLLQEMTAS

Molecule | IC50 (μM) | IC50
Cc1cccc(-n2nc(C3CCNCC3)cc2NC(=O)c2cnn3cccnc23)c1 [Example 15, N-(3-(piperidin-4-yl)-1-(m-tolyl)-1H-pyrazol-5-yl)pyrazolo[1,5-a]pyrimidine-3-carboxamide] | < 1 µM | –
CN1CCC(c2cc(NC(=O)c3cnn4cccnc34)n(-c3ccc(F)cc3F)n2)CC1 [Example 48, N-(1-(2,4-difluorophenyl)-3-(1-methylpiperidin-4-yl)-1H-pyrazol-5-yl)pyrazolo[1,5-a]pyrimidine-3-carboxamide] | < 1 µM | –
O=C(Nc1cc(C2CCNCC2)nn1-c1ccc(C2CC2)cc1)c1cnn2cccnc12 [Example 52, N-(1-(4-cyclopropylphenyl)-3-(piperidin-4-yl)-1H-pyrazol-5-yl)pyrazolo[1,5-a]pyrimidine-3-carboxamide] | – | < 0.1 µM
O=C(Nc1cc(C2CCNCC2)nn1-c1cc(F)cc(F)c1)c1cnn2cccnc12 [Example 67, N-(1-(3,5-difluorophenyl)-3-(piperidin-4-yl)-1H-pyrazol-5-yl)pyrazolo[1,5-a]pyrimidine-3-carboxamide] | > 1 µM | –
Cc1ccc(-n2nc(C3CCN(C)CC3)cc2NC(=O)c2cnn3cccnc23)cc1 [Example 36, N-(3-(1-methylpiperidin-4-yl)-1-(p-tolyl)-1H-pyrazol-5-yl)pyrazolo[1,5-a]pyrimidine-3-carboxamide] | < 1 µM | –
Cc1ccc(-n2nc(C3CCN(C4CCCOC4)CC3)cc2NC(=O)c2cnn3cc(Br)cnc23)cc1 (stereo not drawn) [Example 109, 6-bromo-N-(3-(1-(tetrahydro-2H-pyran-3-yl)piperidin-4-yl)-1-(p-tolyl)-1H-pyrazol-5-yl)pyrazolo[1,5-a]pyrimidine-3-carboxamide] | – | < 0.1 µM
CC(=O)N1CCC(c2cc(NC(=O)c3cnn4cccnc34)n(-c3ccc(C)cc3)n2)CC1 [Example 31, N-(3-(1-acetylpiperidin-4-yl)-1-(p-tolyl)-1H-pyrazol-5-yl)pyrazolo[1,5-a]pyrimidine-3-carboxamide] | < 1 µM | –
methyl((4-(5-(pyrazolo[1,5-a]pyrimidine-3-carboxamido)-1-(p-tolyl)-1H-pyrazol-3-yl)cyclohexyl)methyl)carbamate [Example 183] | < 1 µM | –
NC(=O)c1ccc(-n2nc(C3CCNCC3)cc2NC(=O)c2cnn3cccnc23)nc1 [Example 160, N-(1-(5-carbamoylpyridin-2-yl)-3-(piperidin-4-yl)-1H-pyrazol-5-yl)pyrazolo[1,5-a]pyrimidine-3-carboxamide] | < 1 µM | –
Cc1ccc(-n2nc(C3CCN(S(=O)(=O)c4ccc(F)c(F)c4)CC3)cc2NC(=O)c2cnn3cccnc23)cc1 [Example 365] | < 1 µM | –
Cc1ccc(-n2nc(-c3ccc(S(C)(=O)=O)cc3)cc2NC(=O)c2cnn3cccnc23)cc1 [Example 134, N-(3-(4-(methylsulfonyl)phenyl)-1-(p-tolyl)-1H-pyrazol-5-yl)pyrazolo[1,5-a]pyrimidine-3-carboxamide] | – | < 0.1 µM
CC(C)(CN)c1ccc(-n2nc(C3CCN(S(C)(=O)=O)CC3)cc2NC(=O)c2cnn3cccnc23)nc1 [Example 158, N-(1-(5-(1-amino-2-methylpropan-2-yl)pyridin-2-yl)-3-(1-(methylsulfonyl)piperidin-4-yl)-1H-pyrazol-5-yl)pyrazolo[1,5-a]pyrimidine-3-carboxamide] | – | < 0.1 µM
Cc1ccc(-n2nc(C3CCNCC3)cc2NC(=O)c2cnn3cccnc23)cn1 [Example 167, N-(1-(6-methylpyridin-3-yl)-3-(piperidin-4-yl)-1H-pyrazol-5-yl)pyrazolo[1,5-a]pyrimidine-3-carboxamide] | > 1 µM | –
N#Cc1ccc(-n2nc(C3CCNCC3)cc2NC(=O)c2cnn3cccnc23)cc1 [Example 12, N-(1-(4-cyanophenyl)-3-(piperidin-4-yl)-1H-pyrazol-5-yl)pyrazolo[1,5-a]pyrimidine-3-carboxamide] | > 1 µM | –
Cc1ccc(-n2nc(C3CCC(C(=O)N(C)C)CC3)cc2NC(=O)c2cnn3cccnc23)cc1 (stereo not drawn) [Example 96, N-(3-(4-(dimethylcarbamoyl)cyclohexyl)-1-(p-tolyl)-1H-pyrazol-5-yl)pyrazolo[1,5-a]pyrimidine-3-carboxamide] | – | < 0.1 µM
Cc1ccc(-n2nc(C3CCNC3)cc2NC(=O)c2cnn3cccnc23)cc1 (stereo not drawn) [Example 80, N-(3-(pyrrolidin-3-yl)-1-(p-tolyl)-1H-pyrazol-5-yl)pyrazolo[1,5-a]pyrimidine-3-carboxamide] | < 1 µM | –
COCCS(=O)(=O)N1CC(c2cc(NC(=O)c3cnn4cccnc34)n(-c3ccc(C)cc3)n2)C1 [Example 86, N-(3-(1-((2-methoxyethyl)sulfonyl)azetidin-3-yl)-1-(p-tolyl)-1H-pyrazol-5-yl)pyrazolo[1,5-a]pyrimidine-3-carboxamide] | < 1 µM | –
Cc1ccc(-n2nc(C3CCN(C(=O)CCN(C)C)CC3)cc2NC(=O)c2cnn3cc(Br)cnc23)cc1 [Example 113, 6-bromo-N-(3-(1-(3-(dimethylamino)propanoyl)piperidin-4-yl)-1-(p-tolyl)-1H-pyrazol-5-yl)pyrazolo[1,5-a]pyrimidine-3-carboxamide] | – | < 0.1 µM

More lines, now with the values ahead:

IC50 (μM) | IC50 | Molecule
– | < 0.1 µM | O=C(Nc1cc(C2CCNCC2)nn1-c1nccs1)c1cnn2cccnc12 [Example 189, N-(3-(piperidin-4-yl)-1-(thiazol-2-yl)-1H-pyrazol-5-yl)pyrazolo[1,5-a]pyrimidine-3-carboxamide]
– | < 0.1 µM | Cc1ccc(-n2nc(C3CCN(CC4CC4)CC3)cc2NC(=O)c2cnn3cccnc23)cc1 [Example 221, N-{3-[1-(cyclopropylmethyl)piperidin-4-yl]-1-(4-methylphenyl)-1H-pyrazol-5-yl}pyrazolo[1,5-a]pyrimidine-3-carboxamide]
< 1 µM | – | COc1ccc(S(=O)(=O)N2CCC(c3cc(NC(=O)c4cnn5cccnc45)n(-c4ccc(C)cc4)n3)CC2)cc1 [Example 367, N-[3-{1-[(4-methoxyphenyl)sulfonyl]piperidin-4-yl}-1-(4-methylphenyl)-1H-pyrazol-5-yl]pyrazolo[1,5-a]pyrimidine-3-carboxamide]
< 1 µM | – | Cc1ccc(-n2nc(C3CCN(S(=O)(=O)c4cn(C)cn4)CC3)cc2NC(=O)c2cnn3cccnc23)cc1 [Example 376, N-[3-{1-[(1-methyl-1H-imidazol-4-yl)sulfonyl]piperidin-4-yl}-1-(4-methylphenyl)-1H-pyrazol-5-yl]pyrazolo[1,5-a]pyrimidine-3-carboxamide]
< 1 µM | – | Cc1ccc(-n2nc(C3CCN(S(=O)(=O)CCC(F)(F)F)CC3)cc2NC(=O)c2cnn3cccnc23)cc1 [Example 363, N-[1-(4-methylphenyl)-3-{1-[(3,3,3-trifluoropropyl)sulfonyl]piperidin-4-yl}-1H-pyrazol-5-yl]pyrazolo[1,5-a]pyrimidine-3-carboxamide]
< 1 µM | – | CC(=O)N1CC(N2CCC(c3cc(NC(=O)c4cnn5cccnc45)n(-c4ccc(C)cc4)n3)CC2)C1 [Example 248, N-{3-[1-(1-acetylazetidin-3-yl)piperidin-4-yl]-1-(4-methylphenyl)-1H-pyrazol-5-yl}pyrazolo pyrimidine-3-carboxamide]
< 1 µM | – | Cc1ccc(-n2nc(-c3cnn(CCS(C)(=O)=O)c3)cc2NC(=O)c2cnn3cccnc23)cc1 [Example 333, N-{1-(4-methylphenyl)-1′-[2-(methylsulfonyl)ethyl]-1H,1′H-3,4′-bipyrazol-5-yl}pyrazolo[1,5-a]pyrimidine-3-carboxamide]
< 1 µM | – | CCCS(=O)(=O)N1CCC(c2cc(NC(=O)c3cnn4cccnc34)n(-c3ccc(C)cc3)n2)CC1 [Example 361, N-{1-(4-methylphenyl)-3-[1-(propylsulfonyl)piperidin-4-yl]-1H-pyrazol-5-yl}pyrazolo[1,5-a]pyrimidine-3-carboxamide]
< 1 µM | – | CCS(=O)(=O)N1CC(N2CCC(c3cc(NC(=O)c4cnn5cccnc45)n(-c4ccc(C)cc4)n3)CC2)C1 [Example 243, N-[3-{1-[1-(ethylsulfonyl)azetidin-3-yl]piperidin-4-yl}-1-(4-methylphenyl)-1H-pyrazol-5-yl]pyrazolo[1,5-a]pyrimidine-3-carboxamide]
– | < 0.1 µM | CCOC(=O)N1CCC(N2CCC(c3cc(NC(=O)c4cnn5cccnc45)n(-c4ccc(C)cn4)n3)CC2)CC1 [Example 276, ethyl 4-{1-(5-methylpyridin-2-yl)-5-[(pyrazolo[1,5-a]pyrimidin-3-ylcarbonyl)amino]-1H-pyrazol-3-yl}-1,4′-bipiperidine-1′-carboxylate]
< 1 µM | – | Cc1ccc(-n2nc(C3CN(Cc4ncco4)C3)cc2NC(=O)c2cnn3cccnc23)cc1 [Example 316, N-{1-(4-methylphenyl)-3-[1-(1,3-oxazol-2-ylmethyl)azetidin-3-yl]-1H-pyrazol-5-yl}pyrazolo[1,5-a]pyrimidine-3-carboxamide]
– | < 0.1 µM | Cc1ccc(-n2nc(N3CCN(C4CCC4)CC3)cc2NC(=O)c2cnn3cccnc23)nc1 [Example 320, N-[3-(4-cyclobutylpiperazin-1-yl)-1-(5-methylpyridin-2-yl)-1H-pyrazol-5-yl]pyrazolo[1,5-a]pyrimidine-3-carboxamide]
> 1 µM | – | Cc1ccc(-n2nc(C3CC3)cc2NC(=O)c2cnn3cccnc23)nc1 [Example 180, N-(3-cyclopropyl-1-(5-methylpyridin-2-yl)-1H-pyrazol-5-yl)pyrazolo[1,5-a]pyrimidine-3-carboxamide]
– | < 0.1 µM | Cc1ccc(-n2nc(C3CCN(C4CCC(C#N)CC4)CC3)cc2NC(=O)c2cnn3cccnc23)cc1 (stereo not drawn) [Example 253, N-{3-[1-(4-cyanocyclohexyl)piperidin-4-yl]-1-(4-methylphenyl)-1H-pyrazol-5-yl}pyrazolo[1,5-a]pyrimidine-3-carboxamide]
< 1 µM | – | Cc1ccc(-n2nc(C3CCN(S(=O)(=O)Cc4noc5ccccc45)CC3)cc2NC(=O)c2cnn3cccnc23)cc1 [Example 356, N-[3-{1-[(1,2-benzisoxazol-3-ylmethyl)sulfonyl]piperidin-4-yl}-1-(4-methylphenyl)-1H-pyrazol-5-yl]pyrazolo[1,5-a]pyrimidine-3-carboxamide]
